Laboratory results: patent publication US9409924B2, “Selective glycosidase inhibitors and uses thereof” (Alectos Therapeutics Inc., priority 2011, dated 2016)
pEC50, pKi: −log10 of the molar value.

Assays:
human O-GlcNAcase = human O-GlcNAcase (Homo sapiens (Human), UniProt O60502); assay: Assay for determination of KI values for inhibition of O-GlcNAcase activity (fluorescence-based hOGA); format: biochemical; settings: purified human O-GlcNAcase, 4-Methylumbelliferyl N-acetyl-β-D-glucosaminide substrate, pH 7.0, Cheng-Prusoff
Sequence of human O-GlcNAcase (O60502 whole entry): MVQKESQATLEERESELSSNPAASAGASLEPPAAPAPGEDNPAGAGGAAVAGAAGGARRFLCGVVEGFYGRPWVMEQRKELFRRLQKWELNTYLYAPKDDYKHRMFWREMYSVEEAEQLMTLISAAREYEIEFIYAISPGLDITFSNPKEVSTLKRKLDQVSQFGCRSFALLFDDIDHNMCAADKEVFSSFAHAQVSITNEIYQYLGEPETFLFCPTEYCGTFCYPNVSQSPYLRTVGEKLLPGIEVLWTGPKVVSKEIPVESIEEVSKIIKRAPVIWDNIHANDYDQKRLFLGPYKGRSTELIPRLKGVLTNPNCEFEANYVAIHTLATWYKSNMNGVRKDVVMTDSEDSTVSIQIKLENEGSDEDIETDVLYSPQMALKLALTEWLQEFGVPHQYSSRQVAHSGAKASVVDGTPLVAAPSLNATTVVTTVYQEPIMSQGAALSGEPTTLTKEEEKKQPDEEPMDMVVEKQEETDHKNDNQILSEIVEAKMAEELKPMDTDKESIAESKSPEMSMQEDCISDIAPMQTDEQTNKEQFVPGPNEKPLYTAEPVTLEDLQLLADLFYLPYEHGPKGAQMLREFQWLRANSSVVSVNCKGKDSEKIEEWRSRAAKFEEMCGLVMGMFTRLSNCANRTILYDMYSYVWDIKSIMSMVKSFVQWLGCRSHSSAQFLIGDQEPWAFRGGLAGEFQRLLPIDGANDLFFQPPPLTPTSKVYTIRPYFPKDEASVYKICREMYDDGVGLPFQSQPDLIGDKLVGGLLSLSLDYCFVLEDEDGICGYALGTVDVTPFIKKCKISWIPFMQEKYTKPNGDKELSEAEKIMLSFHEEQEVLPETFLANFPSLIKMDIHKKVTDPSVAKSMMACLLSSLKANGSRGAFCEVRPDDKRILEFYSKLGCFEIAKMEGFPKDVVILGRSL
Experimental: Assay for Determination of KI Values for Inhibition of O-GlcNAcase Activity
Experimental Procedure for Kinetic Analyses:
Enzymatic reactions were carried out in a reaction containing 50 mM NaH2PO4, 100 mM NaCl and 0.1% BSA (pH 7.0) using 2 mM 4-Methylumbelliferyl N-acetyl-β-D-glucosaminide dihydrate (Sigma M2133) dissolved in ddH2O, as a substrate. The amount of purified human O-GlcNAcase enzyme used in the reaction was 0.7 nM. Test compound of varying concentrations was added to the enzyme prior to initiation of the reaction. The reaction was performed at room temperature in a 96-well plate and was initiated with the addition of substrate. […] The slope of product production was determined for each concentration of compound tested and plotted, using standard curve fitting algorithms for sigmoidal dose response curves. The values for a four parameter logistic curve fit of the data were determined.

O-GlcNAcase = O-GlcNAcase (Rattus norvegicus (Rat), UniProt Q8VIJ5); assay: Cell-based ELISA of O-GlcNAcylated protein (RL-2 antibody) for cellular activity of O-GlcNAcase inhibitors; settings: rat PC-12 cells, 24 h treatment, O-GlcNAcylated protein detected with RL-2 antibody
Sequence of O-GlcNAcase (Q8VIJ5 whole entry): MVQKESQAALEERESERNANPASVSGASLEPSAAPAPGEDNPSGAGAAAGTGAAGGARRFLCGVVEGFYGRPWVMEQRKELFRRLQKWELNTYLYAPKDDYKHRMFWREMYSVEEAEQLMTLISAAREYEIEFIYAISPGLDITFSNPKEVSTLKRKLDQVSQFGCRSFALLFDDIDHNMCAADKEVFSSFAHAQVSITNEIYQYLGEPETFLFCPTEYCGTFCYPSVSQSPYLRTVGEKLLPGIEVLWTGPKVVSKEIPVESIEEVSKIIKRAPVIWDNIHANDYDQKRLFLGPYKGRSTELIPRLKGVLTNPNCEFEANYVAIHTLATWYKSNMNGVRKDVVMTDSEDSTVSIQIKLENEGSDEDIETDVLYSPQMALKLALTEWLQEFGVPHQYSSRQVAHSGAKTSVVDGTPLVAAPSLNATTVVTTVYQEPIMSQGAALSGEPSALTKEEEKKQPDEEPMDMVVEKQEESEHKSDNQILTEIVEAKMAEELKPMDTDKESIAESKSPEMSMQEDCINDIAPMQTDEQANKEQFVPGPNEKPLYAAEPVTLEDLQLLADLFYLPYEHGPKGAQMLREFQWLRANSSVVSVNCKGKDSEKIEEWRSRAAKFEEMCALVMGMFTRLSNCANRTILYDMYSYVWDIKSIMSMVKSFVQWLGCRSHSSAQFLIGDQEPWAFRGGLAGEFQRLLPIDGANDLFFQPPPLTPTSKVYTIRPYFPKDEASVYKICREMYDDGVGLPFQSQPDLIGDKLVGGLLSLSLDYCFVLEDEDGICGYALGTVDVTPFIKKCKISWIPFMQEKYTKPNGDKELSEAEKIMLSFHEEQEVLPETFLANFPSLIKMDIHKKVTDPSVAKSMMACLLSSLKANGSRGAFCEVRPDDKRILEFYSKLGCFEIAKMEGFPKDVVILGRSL
From the text: Assay for Determination of Cellular Activity for Compounds that Inhibit O-GlcNAcase Activity
Inhibition of O-GlcNAcase, which removes O-GlcNAc from cellular proteins, results in an increase in the level of O-GlcNAcylated protein in cells. An increase in O-GlcNAcylated protein can be measured by an antibody, such as RL-2, that binds to O-GlcNAcylated protein. The amount of O-GlcNAcylated protein:RL2 antibody interaction can be measured by enzyme linked immunosorbant assay (ELISA) procedures.
A variety of tissue culture cell lines, expressing endogenous levels of O-GlcNAcase, can be utilized; examples include rat PC-12, and human U-87, or SK—N—SH cells. […] Compounds to be tested were dissolved in DMSO, either 2 or 10 mM stock solution, and then diluted with DMSO and water in a two-step process using a Tecan workstation. […] To prepare a cell lysate, the media from compound treated cells was removed, the cells were washed once with phosphate buffered saline (PBS) and then lysed for 5 minutes at room temperature in 50 μL of Phosphosafe reagent (Novagen Inc, Madison, Wis.) with protease inhibitors and PMSF. The cell lysate was collected and transferred to a new plate, which was then either coated to assay plates directly or frozen −80° C. until used in the ELISA procedure. If desired, the total protein concentration of samples was determined using 20 μL of the sample using the BCA method.
The ELISA portion of the assay was performed in a black Maxisorp 96-well plate that was coated overnight at 4° C. with 100 μL/well of the cell lysate (1:10 dilution of the lysate with PBS containing protease inhibitors, phosphatase inhibitors, and PMSF). […]
The amount of O-GlcNAcylated protein, as detected by the ELISA assay, was plotted for each concentration of test compound using standard curve fitting algorithms for sigmoidal dose response curves. The values for a four parameter logistic curve fit of the data were determined, with the inflection point of the curve being the potency value for the test compound.

[1] = Assay for determination of apparent permeability (Papp), bi-directional transport; format: in vitro ADME; settings: pig, LLC-PK1; 1 μM test compound, t=3 h, average of A to B and B to A; read-out: Papp LLC-PK1 cells
Experimental: Assay for Determination of Apparent Permeability (Papp)
Bi-directional transport was evaluated in LLC-PK1 cells in order to determine apparent permeability (Papp). LLC-PK1 cells can form a tight monolayer and therefore can be used to assess vectorial transport of compounds from basolateral to apical (B→A) and from apical to basolateral (A→B).
To determine Papp, LLC-PK1 cells were cultured in 96-well transwell culture plates (Millipore). Solutions containing the test compounds (1 μM) were prepared in Hank's Balanced Salt Solution with 10 mM HEPES. Substrate solution (150 μL) was added to either the apical (A) or the basolateral (B) compartment of the culture plate, and buffer (150 μL) was added to the compartment opposite to that containing the compound. At t=3 h, 50 μL samples were removed from both sides of monolayers dosed with test compound and placed in 96 well plates, scintillant (200 μL) or internal standard (100 μL labetolol 1 μM) was added to the samples and concentration was determined by liquid scintillation counting in a MicroBeta Wallac Trilux scintillation counter (Perkin Elmer Life Sciences, Boston, Mass.) or by LCMS/MS (Applied Biosystems SCIEX API 5000 triple quadruple mass spectrometer). [^3H]Verapamil (1 μM) was used as the positive control. The experiment was performed in triplicate.
[formula] Where: Volume of Receptor Chamber was 0.15 mL; Area of membrane was 0.11 cm^2; the Initial Concentration is the sum of the concentration measured in the donor plus concentration measured in receiver compartments at t=3 h; A in Concentration is concentration in the receiver compartment at 3 h; and Δ in Time is the incubation time (3×60×60=10800 s). Papp was expressed as 10^−6 cm/s.

pKi (human O-GlcNAcase) | pEC50 (O-GlcNAcase) | Papp at 3 h, 1 μM [1] [×10⁻⁶ cm/s] | SMILES
8.46 | 7.13 | 6.6 | CNC1=N[C@@H]2[C@@H](F)[C@H](O)[C@@H]([C@@H](O)C(F)(F)F)O[C@@H]2S1 [Example 9, (3aR,5S,6R,7R,7aR)-7-fluoro-2-(methylamino)-5-((R)-2,2,2-trifluoro-1-hydroxyethyl)-5,6,7,7a-tetrahydro-3aH-pyrano[3,2-d]thiazol-6-ol]
7.89 |  | 21 | O[C@H]1[C@H](F)[C@H]2N=C(N3CCC3)S[C@H]2O[C@@H]1[C@@H](O)C(F)(F)F [Example 32, (3aR,5S,6R,7R,7aR)-2-(azetidin-1-yl)-7-fluoro-5-((R)-2,2,2-trifluoro-1-hydroxyethyl)-5,6,7,7a-tetrahydro-3aH-pyrano[3,2-d]thiazol-6-ol]
7.80 |  | 15 | CCNC1=N[C@@H]2[C@@H](F)[C@H](O)[C@@H]([C@@H](O)C(F)(F)F)O[C@@H]2S1 [Example 7, (3aR,5S,6R,7R,7aR)-2-(ethylamino)-7-fluoro-5-((R)-2,2,2-trifluoro-1-hydroxyethyl)-5,6,7,7a-tetrahydro-3aH-pyrano[3,2-d]thiazol-6-ol]
6.58 |  | 2.1 | CCNC1=N[C@@H]2[C@H](F)[C@H](O)[C@@H]([C@@H](C)O)O[C@@H]2S1 [Example 37, (3aR,5R,6R,7S,7aR)-2-(ethylamino)-7-fluoro-5-((R)-1-hydroxyethyl)-5,6,7,7a-tetrahydro-3aH-pyrano[3,2-d]thiazol-6-ol]
8.02 |  | 23 | CN(C)C1=N[C@@H]2[C@@H](F)[C@H](O)[C@@H]([C@@H](O)C(F)(F)F)O[C@@H]2S1 [Example 11, (3aR,5S,6R,7R,7aR)-2-(dimethylamino)-7-fluoro-5-((R)-2,2,2-trifluoro-1-hydroxyethyl)-5,6,7,7a-tetrahydro-3aH-pyrano[3,2-d]thiazol-6-ol]
9.15 | 8.04 | 3.7 | CNC1=N[C@@H]2[C@H](F)[C@H](O)[C@@H]([C@@H](O)C(F)(F)F)O[C@@H]2S1 [Example 38, (3aR,5S,6R,7S,7aR)-7-fluoro-2-(methylamino)-5-((R)-2,2,2-trifluoro-1-hydroxyethyl)-5,6,7,7a-tetrahydro-3aH-pyrano[3,2-d]thiazol-6-ol]
 |  | 1.9 | CNC1=N[C@@H]2[C@H](F)[C@H](O)[C@@H]([C@H](C)O)O[C@@H]2S1 [Example 34, (3aR,5R,6R,7S,7aR)-7-fluoro-5-((S)-1-hydroxyethyl)-2-(methylamino)-5,6,7,7a-tetrahydro-3aH-pyrano[3,2-d]thiazol-6-ol]
7.92 |  | 5.2 | CCNC1=N[C@@H]2[C@@H](F)[C@H](O)[C@@H]([C@H](C)O)O[C@@H]2S1 [Example 3, (3aR,5R,6R,7R,7aR)-2-(ethylamino)-7-fluoro-5-((S)-1-hydroxyethyl)-5,6,7,7a-tetrahydro-3aH-pyrano[3,2-d]thiazol-6-ol]

Further lines, the compound ahead of its results:

SMILES | pKi (human O-GlcNAcase) | pEC50 (O-GlcNAcase) | Papp at 3 h, 1 μM [1] [×10⁻⁶ cm/s]
CNC1=N[C@@H]2[C@@H](F)[C@H](O)[C@@H]([C@H](C)O)O[C@@H]2S1 [Example 1, (3aR,5R,6R,7R,7aR)-7-fluoro-5-((S)-1-hydroxyethyl)-2-(methylamino)-5,6,7,7a-tetrahydro-3aH-pyrano[3,2-d]thiazol-6-ol] |  |  | 3.3
C[C@H](O)[C@H]1O[C@@H]2SC(N(C)C)=N[C@@H]2[C@@H](F)[C@@H]1O [Example 5, (3aR,5R,6R,7R,7aR)-2-(dimethylamino)-7-fluoro-5-((S)-1-hydroxyethyl)-5,6,7,7a-tetrahydro-3aH-pyrano[3,2-d]thiazol-6-ol] | 7.80 |  | 14
CNC1=N[C@@H]2[C@H](F)[C@H](O)[C@@H](C(C)(C)O)O[C@@H]2S1 [Example 43, (3aR,5S,6R,7S,7aR)-7-fluoro-5-(2-hydroxypropan-2-yl)-2-(methylamino)-5,6,7,7a-tetrahydro-3aH-pyrano[3,2-d]thiazol-6-ol] | 6.41 |  | 2.4
CC[C@H]1O[C@@H]2SC(NC)=N[C@@H]2[C@H](F)[C@@H]1O [Example 42, (3aR,5R,6R,7S,7aR)-5-ethyl-7-fluoro-2-(methylamino)-5,6,7,7a-tetrahydro-3aH-pyrano[3,2-d]thiazol-6-ol] | 7.30 |  | 
CNC1=N[C@@H]2C[C@H](O)[C@@H]([C@@H](O)C(F)(F)F)O[C@@H]2S1 [Example 20, (3aR,5S,6S,7aR)-2-(methylamino)-5-((R)-2,2,2-trifluoro-1-hydroxyethyl)-5,6,7,7a-tetrahydro-3aH-pyrano[3,2-d]thiazol-6-ol] | 8.46 | 7.30 | 3.4
CNC1=N[C@@H]2C[C@H](O)[C@@H]([C@@](C)(O)C(F)(F)F)O[C@@H]2S1 [Example 29, (3aR,5S,6S,7aR)-2-(methylamino)-5-((R)-1,1,1-trifluoro-2-hydroxypropan-2-yl)-5,6,7,7a-tetrahydro-3aH-pyrano[3,2-d]thiazol-6-ol] | 6.31 |  | 
CCNC1=N[C@@H]2C[C@H](O)[C@@H]([C@H](C)O)O[C@@H]2S1 [Example 13, (3aR,5R,6S,7aR)-2-(ethylamino)-5-((S)-1-hydroxyethyl)-5,6,7,7a-tetrahydro-3aH-pyrano[3,2-d]thiazol-6-ol] | 7.59 |  | 2.3
CC[C@H]1O[C@@H]2SC(NC)=N[C@@H]2[C@@H](F)[C@@H]1O [Example 15, (3aR,5R,6R,7R,7aR)-5-ethyl-7-fluoro-2-(methylamino)-5,6,7,7a-tetrahydro-3aH-pyrano[3,2-d]thiazol-6-ol] | 6.81 |  | 34
